From paper PMC3214022, “Plasmodium falciparum Parasites Are Killed by a Transition State Analogue of Purine Nucleoside Phosphorylase in a Primate Animal Model” (PLoS ONE, 2011)
“And” between values parts separate entries of the source, which are not always exact repeats. Equal values may be shown once.

Assay: Weights, CBC and blood chemistry, Table S1 sheet PD-1 (efficacy study in P. falciparum-infected Aotus)
Format: in vivo, Aotus lemurinus lemurinus
Settings: IV 10 mg/kg once a day/3 days
Procedure: Laboratory bred Aotus lemurinus lemurinus monkeys (0.75–0.89 kg) were maintained as described. […] Blood samples were collected before the treatment started (t = 0), 0.05 h, 0.5 h, 1 h, 2 h, 6 h, 24 h, 48 h, and 6, 12 and 18 days after the first dose from each monkey and processed as described below. Pharmacokinetic parameters were calculated using PKSolver. For efficacy studies, Aotus monkeys were inoculated intravenously with 5×10^6 parasites of the FVO strain of P. falciparum in an approved treatment protocol. […] Parasitaemia was determined by Giemsa-stained thick blood smears prepared daily from the marginal ear vein [41]. Blood samples were collected from each monkey and transferred to tubes containing lithium heparin, centrifuged and both plasma and blood cells were frozen at −80 °C until analysis. Animals received a physical examination and blood chemistry profiles were monitored after treatment as described previously. Any monkey not responding appropriately to treatment was cured of its infection with mefloquine (40 mg kg^−1). […] The day of clearance is defined as the first of three consecutive days in which the thick blood films are parasite negative. The day of recrudescence is the first of three consecutive days of positive thick blood films after a period of clearance. Suppression is defined as a transient decrease in the parasite count post-treatment without clearance.

Nc1nc2c(CN3CC(O)C(CO)C3)c[nH]c2c(=O)[nH]1 (centres unmarked) [BCX4945, 4′-deaza-1′-aza-2′-deoxy-1′-(9-methylene)-Immucillin-G]
Blood Urea Nitrogen (day 9, 10 mg/kg): 10.65 mg/dL and 14.3 mg/dL and 10.85 mg/dL and 10.75 mg/dL and 11.6 mg/dL and 17.75 mg/dL | Creatinine (day 9, 10 mg/kg): 0.59 mg/dL and 0.587 mg/dL and 0.522 mg/dL and 0.609 mg/dL and 0.7 mg/dL and 0.665 mg/dL | Erythrocytes (day 9, 10 mg/kg): 4.53e+06 µL⁻¹ and 4.52e+06 µL⁻¹ and 3.97e+06 µL⁻¹ and 3.87e+06 µL⁻¹ and 3.32e+06 µL⁻¹ and 5.16e+06 µL⁻¹ | Granulocytes (%) (day 9, 10 mg/kg): 19.7% and 21.4% and 19.2% and 30% and 21.1% and 36.1% | Hematocrit (day 9, 10 mg/kg): 36.1% and 34.4% and 30.6% and 31.6% and 28.1% and 40.4% | Hemoglobin (day 9, 10 mg/kg): 12 g/dL and 11.8 g/dL and 10.3 g/dL and 10.5 g/dL and 9.3 g/dL and 13.8 g/dL | Leucocytes (day 9, 10 mg/kg): 16700 µL⁻¹ and 22100 µL⁻¹ and 19500 µL⁻¹ and 11100 µL⁻¹ and 19200 µL⁻¹ and 19700 µL⁻¹ | Lymphocytes (%) (day 9, 10 mg/kg): 65.5% and 44.6% and 64.7% and 56.2% and 66.9% and 50.4% | Mean Corpuscular Hemoglobin (day 9, 10 mg/kg): 26.5 pg and 26.1 pg and 25.9 pg and 27.1 pg and 28.1 pg and 26.7 pg | Mean Corpuscular Volume (day 9, 10 mg/kg): 79.7 fL and 76.1 fL and 77.1 fL and 81.8 fL and 84.7 fL and 78.2 fL | Mean Hemoglobin Content (day 9, 10 mg/kg): 33.3 g/dL and 34.4 g/dL and 33.6 g/dL and 33.2 g/dL and 33.1 g/dL and 34.1 g/dL | Mean Platelet Volume (day 9, 10 mg/kg): 11.9 fL and 15.2 fL and 12.6 fL and 13.1 fL and 13.2 fL and 13.5 fL | Platelets (day 9, 10 mg/kg): 321000 µL⁻¹ and 270000 µL⁻¹ and 322000 µL⁻¹ and 237000 µL⁻¹ and 267000 µL⁻¹ and 336000 µL⁻¹ | Red Cell Distribution Width (day 9, 10 mg/kg): 12.8% and 11.8% and 11.5% and 13.6% and 12.1% | Reticulocytes (day 9, 10 mg/kg): 1.7% and 1.2% and 2.3% and 1.8% and 1.3% and 1.9% | WEIGHT (day 9, 10 mg/kg): 780 g and 698 g and 888 g and 790 g and 930 g and 685 g | Creatinine (day 12, 10 mg/kg): 0.555 mg/dL and 0.539 mg/dL and <0.500 mg/dL and 0.508 mg/dL and 0.604 mg/dL and 0.605 mg/dL | Erythrocytes (day 12, 10 mg/kg): 4.01e+06 µL⁻¹ and 4.03e+06 µL⁻¹ and 3.46e+06 µL⁻¹ and 5.43e+06 µL⁻¹ and 2.96e+06 µL⁻¹ and 4.66e+06 µL⁻¹ | Glutamate Pyruvate Transaminase (day 12, 10 mg/kg): 41.8 U/L and 40.8 U/L and 52.6 U/L and 38.7 U/L and 64.9 U/L and 39.6 U/L | Hematocrit (day 12, 10 mg/kg): 31.6% and 31.2% and 27.1% and 43.9% and 26.3% and 36.3% | Hemoglobin (day 12, 10 mg/kg): 10.9 g/dL and 10.7 g/dL and 9.2 g/dL and 14.9 g/dL and 8.6 g/dL and 12.7 g/dL | Leucocytes (day 12, 10 mg/kg): 36300 µL⁻¹ and 31000 µL⁻¹ and 41200 µL⁻¹ and 29300 µL⁻¹ and 42600 µL⁻¹ and 45600 µL⁻¹ | Lymphocytes (%) (day 12, 10 mg/kg): 72.6% and 57.1% and 73% and 56% and 73.9% and 60.8% | Lymphocytes (x 103/ul) (day 12, 10 mg/kg): 26.4 x 103/ul and 17.7 x 103/ul and 30.1 x 103/ul and 16.4 x 103/ul and 31.5 x 103/ul and 27.7 x 103/ul | Mean Corpuscular Hemoglobin (day 12, 10 mg/kg): 27.2 pg and 26.5 pg and 27.5 pg and 29 pg and 27.4 pg | Mean Corpuscular Volume (day 12, 10 mg/kg): 78.8 fL and 77.3 fL and 78.4 fL and 80.9 fL and 88.8 fL and 78 fL | Mean Hemoglobin Content (day 12, 10 mg/kg): 34.5 g/dL and 34.3 g/dL and 33.8 g/dL and 34.1 g/dL and 32.7 g/dL and 35.1 g/dL | Mean Platelet Volume (day 12, 10 mg/kg): 17.3 fL and 13.7 fL and 12.9 fL and 18.2 fL and 11.1 fL | Monocytes (x 103/ul) (day 12, 10 mg/kg): 3.5 x 103/ul and 4.3 x 103/ul and 6 x 103/ul and 4.1 x 103/ul | Red Cell Distribution Width (day 12, 10 mg/kg): 13.5% and 12.4% and 12.7% and 11.4% and 14.8% and 12.2% | Reticulocytes (day 12, 10 mg/kg): 1.7% and 2.1% and 2.5% and 2.6% and 1.3% | WEIGHT (day 12, 10 mg/kg): 766 g and 680 g and 832 g and 849 g and 684 g | Blood Urea Nitrogen (day 19, 10 mg/kg): 19.25 mg/dL and <10.0 mg/dL and 15.3 mg/dL and 13.8 mg/dL and 15.4 mg/dL and 13.5 mg/dL | Creatinine (day 19, 10 mg/kg): 0.514 mg/dL and <0.500 mg/dL and 0.504 mg/dL and 0.562 mg/dL and 0.507 mg/dL | Erythrocytes (day 19, 10 mg/kg): 4.88e+06 µL⁻¹ and 4.44e+06 µL⁻¹ and 4.27e+06 µL⁻¹ and 4e+06 µL⁻¹ and 4.12e+06 µL⁻¹ and 5.22e+06 µL⁻¹ | Glutamate Pyruvate Transaminase (day 19, 10 mg/kg): 29 U/L and 20.1 U/L and 31.3 U/L and 23.9 U/L and 26.3 U/L and 21.8 U/L | Hemoglobin (day 19, 10 mg/kg): 14.2 g/dL and 11.9 g/dL and 11.8 g/dL and 12.5 g/dL | Leucocytes (day 19, 10 mg/kg): 30100 µL⁻¹ and 23700 µL⁻¹ and 16700 µL⁻¹ and 22900 µL⁻¹ and 19600 µL⁻¹ and 17100 µL⁻¹ | Lymphocytes (%) (day 19, 10 mg/kg): 87.7% and 48.9% and 76.9% and 73.7% and 77.1% and 48.7% | Mean Corpuscular Hemoglobin (day 19, 10 mg/kg): 29 pg and 26.8 pg and 27.5 pg and 29.7 pg and 30.3 pg and 27.1 pg | Mean Corpuscular Volume (day 19, 10 mg/kg): 87.8 fL and 79.1 fL and 84.9 fL and 91.2 fL and 93.4 fL and 81.3 fL | Mean Hemoglobin Content (day 19, 10 mg/kg): 33.1 g/dL and 33.9 g/dL and 32.4 g/dL and 32.6 g/dL and 32.5 g/dL and 33.4 g/dL | Mean Platelet Volume (day 19, 10 mg/kg): 15.6 fL and 12.8 fL and 12.3 fL and 14.4 fL and 14.8 fL and 13.8 fL | Monocytes (%) (day 19, 10 mg/kg): 5.6% and 6.4% and 11.4% and 6.6% | Red Cell Distribution Width (day 19, 10 mg/kg): 23.9% and 15.2% and 21.7% and 23.4% and 22.5% and 17.2% | Reticulocytes (day 19, 10 mg/kg): 1.5% and 2% and 2.3% and 2.2% | WEIGHT (day 19, 10 mg/kg): 777 g and 684 g and 852 g and 754 g and 875 g and 690 g | Blood Urea Nitrogen (day 25, 10 mg/kg): 27.95 mg/dL and 24.85 mg/dL and 23.3 mg/dL and 19.35 mg/dL and 20.25 mg/dL | Creatinine (day 25, 10 mg/kg): <0.500 mg/dL and 0.563 mg/dL and 0.659 mg/dL and 0.585 mg/dL | Erythrocytes (day 25, 10 mg/kg): 4.42e+06 µL⁻¹ and 5.34e+06 µL⁻¹ and 5.57e+06 µL⁻¹ and 4.57e+06 µL⁻¹ and 4.75e+06 µL⁻¹ | Glutamate Pyruvate Transaminase (day 25, 10 mg/kg): 21.7 U/L and 23.8 U/L and 25 U/L and 26.2 U/L | Hematocrit (day 25, 10 mg/kg): 35.7% and 44.6% and 40.2% and 42.6% | Hemoglobin (day 25, 10 mg/kg): 12.1 g/dL and 15.2 g/dL and 15.3 g/dL and 13.4 g/dL and 14.4 g/dL | Leucocytes (day 25, 10 mg/kg): 11500 µL⁻¹ and 12400 µL⁻¹ and 15400 µL⁻¹ and 12700 µL⁻¹ and 10500 µL⁻¹ | Lymphocytes (%) (day 25, 10 mg/kg): 72.6% and 81.9% and 63.9% and 71.1% and 64.3% | Lymphocytes (x 103/ul) (day 25, 10 mg/kg): 8.3 x 103/ul and 10.2 x 103/ul and 9.8 x 103/ul and 9 x 103/ul and 6.8 x 103/ul | Mean Corpuscular Hemoglobin (day 25, 10 mg/kg): 27.3 pg and 28.5 pg and 27.5 pg and 29.3 pg and 30.2 pg | Mean Corpuscular Volume (day 25, 10 mg/kg): 80.8 fL and 83.6 fL and 80.1 fL and 88.1 fL and 89.5 fL | Mean Hemoglobin Content (day 25, 10 mg/kg): 33.8 g/dL and 34.1 g/dL and 34.3 g/dL and 33.2 g/dL and 33.7 g/dL | Mean Platelet Volume (day 25, 10 mg/kg): 12 fL and 13 fL and 11 fL | Monocytes (%) (day 25, 10 mg/kg): 11.3% and 6.2% and 5.7% and 7.9% and 8.2% | Monocytes (x 103/ul) (day 25, 10 mg/kg): 1.3 x 103/ul and 0.8 x 103/ul and 0.9 x 103/ul and 1 x 103/ul | Platelets (day 25, 10 mg/kg): 342000 µL⁻¹ and 291000 µL⁻¹ and 454000 µL⁻¹ and 397000 µL⁻¹ and 336000 µL⁻¹ | Red Cell Distribution Width (day 25, 10 mg/kg): 16.7% and 18.3% and 15.7% and 19.1% and 17.5% | Reticulocytes (day 25, 10 mg/kg): 2.1% and 1.8% and 1.7% and 2.6% and 2.4% | WEIGHT (day 25, 10 mg/kg): 825 g and 760 g and 690 g and 687 g | Blood Urea Nitrogen (day 26): 16.65 mg/dL | Creatinine (day 26): 0.537 mg/dL | Erythrocytes (day 26): 4.54e+06 µL⁻¹ | Glutamate Pyruvate Transaminase (day 26): 18.2 U/L | Granulocytes (%) (day 26): 46.7% | Granulocytes (x 103/ul) (day 26): 7.7 x 103/ul | Hematocrit (day 26): 35.9% | Hemoglobin (day 26): 12 g/dL | Leucocytes (day 26): 16500 µL⁻¹ | Lymphocytes (%) (day 26): 45.8% | Lymphocytes (x 103/ul) (day 26): 7.6 x 103/ul | Mean Corpuscular Hemoglobin (day 26): 26.3 pg | Mean Corpuscular Volume (day 26): 78.9 fL | Mean Hemoglobin Content (day 26): 33.4 g/dL | Mean Platelet Volume (day 26): 12.5 fL | Monocytes (%) (day 26): 7.5% | Monocytes (x 103/ul) (day 26): 1.2 x 103/ul | Platelets (day 26): 314000 µL⁻¹ | Red Cell Distribution Width (day 26): 16.2% | Reticulocytes (day 26): 1.9% | WEIGHT (day 26): 910 g | Creatinine (day -2, 10 mg/kg): 0.623 mg/dL and 0.539 mg/dL and 0.583 mg/dL and 0.677 mg/dL and 0.579 mg/dL and 0.564 mg/dL | Erythrocytes (day -2, 10 mg/kg): 6.51e+06 µL⁻¹ and 6.11e+06 µL⁻¹ and 6.26e+06 µL⁻¹ and 5.03e+06 µL⁻¹ and 5.52e+06 µL⁻¹ and 5.2e+06 µL⁻¹ | Hematocrit (day -2, 10 mg/kg): 50% and 47.6% and 40.6% and 44.3% and 42.4% | Hemoglobin (day -2, 10 mg/kg): 17.2 g/dL and 16.6 g/dL and 16.4 g/dL and 14.2 g/dL and 15.2 g/dL | Leucocytes (day -2, 10 mg/kg): 18500 µL⁻¹ and 15700 µL⁻¹ and 15900 µL⁻¹ and 16400 µL⁻¹ and 10600 µL⁻¹ and 21000 µL⁻¹ | Mean Corpuscular Hemoglobin (day -2, 10 mg/kg): 26.4 pg and 27.2 pg and 26.3 pg and 28.2 pg and 27.5 pg and 33.1 pg | Mean Corpuscular Volume (day -2, 10 mg/kg): 76.8 fL and 78 fL and 76.1 fL and 80.7 fL and 80.2 fL and 81.5 fL | Mean Hemoglobin Content (day -2, 10 mg/kg): 34.4 g/dL and 34.9 g/dL and 34.5 g/dL and 34.3 g/dL and 40.6 g/dL
